In publication PMC3610872, “Full and Partial Agonists of Thromboxane Prostanoid Receptor Unveil Fine Tuning of Receptor Superactive Conformation and G Protein Activation” (PLoS ONE, 2013):
Positions count from the first letter of the chain named.

Legend:
[1] = biological target: T1, E129V mutant human TP receptor (Homo sapiens, UniProt P21731, E129V); experiment: Total inositol phosphate (IP) accumulation, E129V mutant; assay type: cell-based; conditions: HEK293 cells; for EC50 / Emax, total IP / Pharmacodynamic behaviour in total IP assay: E129V; for Activity ratio (EC50 WT over EC50 E129V), total IP: WT vs E129V; for Pharmacodynamic behaviour in total IP assay: SQ29,548 in absence or presence of Gαq overexpression
T1 construct: expressed in transfected cells; host or cells: HEK293
T1 sequence (P21731 1-343 E129V): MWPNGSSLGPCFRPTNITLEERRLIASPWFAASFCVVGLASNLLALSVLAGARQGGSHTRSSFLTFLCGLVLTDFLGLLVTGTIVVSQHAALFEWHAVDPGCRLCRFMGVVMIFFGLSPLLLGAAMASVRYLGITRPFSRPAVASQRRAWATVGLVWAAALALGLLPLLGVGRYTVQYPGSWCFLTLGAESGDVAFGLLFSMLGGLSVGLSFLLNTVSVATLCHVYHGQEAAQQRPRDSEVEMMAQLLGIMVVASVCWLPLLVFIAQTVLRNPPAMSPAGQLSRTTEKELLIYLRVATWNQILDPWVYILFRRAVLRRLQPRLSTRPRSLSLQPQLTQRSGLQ
Experimental: (§1) Receptor expression and functional activity were monitored 48 hours after transfection. […] Heterologous competition studies involved concentrations of the indicated unlabeled ligands extending from 0.1 nM to 30 µM. After 30 min incubation at 25 °C, the reaction was stopped by aspiration of the medium, cells were washed with ice-cold PBS containing 0.2% (w/v) BSA and lysed in 0.5 N NaOH. Radioactivity was measured by liquid scintillation counting. Binding data were analyzed as described in Data and Statistical Analysis. Quantification of the total labeled inositol phosphates (IP) accumulation was performed using a conventional gravity flow column chromatography, as described previously, [19]. Briefly, the day before the assay, cells were labeled with 0,5 µCi of [myo-2-^3H]inositol (17 Ci/mmol) for 18–20 hours in serum-free, inositol-free DMEM containing 20 mM HEPES buffer, pH 7.4, and 0.5% (w/v) Albumax I. The day of the assay, media was replaced with serum-free, inositol-free DMEM containing 25 mM LiCl and cells stimulated for 30 min with the indicated agonists. After removal of the medium, cells were lysed with 10 mM formic acid and lysates were applied onto an anion exchange AG 1X-8 column, formate form, 200–400 mesh. The total IP fraction was then eluted with 2 M ammonium formate/formic acid buffer at pH 5 and radioactivity determined by liquid scintillation counting. Rescue experiments were performed essentially as above, except for a 18 hours incubation step with 1 µΜof […] followed by its removal by washing three times with ice-cold PBS containing 1 mM MgCl2 and 0.1 mM CaCl2 before starting the experiment.
(§2) All average results are presented as mean±S.E. When indicated, ANOVA followed by post-hoc test for multiple comparisons was performed. Data from radioligand binding were evaluated by a nonlinear, least-squares curve-fitting procedure using GraphPad Prism version 4, implemented with the n-ligand m-binding site model, as described in the LIGAND computer program. Concentration-response curves were evaluated using Prism 4, which use the four parameters logistic model as described in the ALLFIT program. Parameter errors are all expressed in percentage coefficient of variation (%CV) and calculated by simultaneous analysis of at least two different independent experiments performed in duplicate or triplicate. Parameter comparison has been performed on the base of the F test for extra sum of square principle. All curves shown are computer generated.

[2] = biological target: T2, WT human TP receptor (Homo sapiens, UniProt P21731); experiment: Total inositol phosphate (IP) accumulation, WT receptor; assay type: cell-based; conditions: HEK293 cells; for Pharmacodynamic behaviour in total IP assay: SQ29,548 in absence or presence of Gαq overexpression
T2 construct: expressed in transfected cells; host or cells: HEK293
T2 sequence (P21731 1-343): T1 sequence (P21731 1-343 E129V) with V129E
Experimental: as §1, §2

[3] = biological target: T2, WT human TP receptor; experiment: BRET2 measurement of Gq protein activation, WT receptor; assay type: cell-based; conditions: HEK293 cells, value ±%CV; for EC50: Gαq-Rluc8/GFP10-Gγ2/Gβ1, 2 min ligand
Excerpt: HEK 293 cells were co-transfected with vectors expressing the GFP^10-Gγ2, Gβ1, Gαq-Rluc8 and WT or E129V mutant of TP receptor to investigate direct G protein activation with an intramolecular bioluminescent resonance energy transfer (BRET^2) strategy. To avoid possible variations in the BRET signaling resulting from fluctuation in the relative expression levels of the energy donor and acceptor, we designed transfection conditions to maintain constant GFP^10 and Rluc8 expression and their ratios in each experimental set. Total fluorescence and luminescence were directly determined in an aliquot of the transfected cells using an Infinite F500 microplate reader (Tecan, Milan, Italy) as previously described. […] 48 hours after transfection, cells were washed once with PBS, detached, and resuspended in PBS+0.1% (w/v) glucose at room temperature. Cells were then distributed (80 µg of proteins per well) into a 96-well microplate (Wallac, Perkin Elmer, Monza, Italy) and incubated in the presence or absence of increasing concentrations of ligands for 2 min before the addition of the luciferase substrate Coelenterazine 400a (5 µM; Biotium, Hayward, CA). BRET signal between Rluc8 and GFP^10 was measured immediately after the addition of the Rluc substrate in the microplate reader. The BRET signal was calculated as the ratio of the light emitted by GFP^10 (510–540 nm) over the light emitted by Rluc8 (370–450 nm). The changes in BRET induced by the ligands were expressed as Òagonist-induced BRETÓ, obtained by subtracting the BRET signal detected in the presence of PBS by the BRET signal detected in the presence of the specific ligand.
as §2
This recorded real time conformational changes between the α and the βγ subunits within the Gq protein, where a decrease of the BRET signal provoked by agonist-induced receptor activation is indicative of a conformational reorganization leading the Gα-Gβγ interface to open, reflects the initial event of Gq protein activation, [23] (Figure 6A).

[4] = biological target: T2, WT human TP receptor; experiment: [3H]SQ29,548 radioligand binding (mixed-type and heterologous competition), WT receptor; conditions: HEK293 cells, competition vs 1 nM [3H]SQ29,548, 25°C 30 min, value ±%CV
Experimental: as §1, §2
(§3) Thus, transfection conditions were adjusted to secure equivalent levels of receptor expression for WT and mutants as previously described, [17], [19]. […] All the experiments were conducted within this range of receptor expression, if not specified differently.

[5] = biological target: T1, E129V mutant human TP receptor; experiment: BRET2 measurement of Gq protein activation, E129V mutant; assay type: cell-based; conditions: HEK293 cells; for EC50: E129V, Gαq-Rluc8/GFP10-Gγ2/Gβ1, 2 min ligand, value ±%CV; for Activity ratio (EC50 WT over EC50 E129V), BRET: WT vs E129V
Experimental: as §2

[6] = biological target: T1, E129V mutant human TP receptor; experiment: [3H]SQ29,548 radioligand binding (mixed-type and heterologous competition), E129V mutant; conditions: HEK293 cells; for Ki: E129V, competition vs 1 nM [3H]SQ29,548, 25°C 30 min, value ±%CV; for Affinity ratio (Ki WT over Ki E129V): WT vs E129V
Experimental: as §1, §2, §3

[7] = biological target: T3, double mutant E129V/E240V of human TP receptor (Homo sapiens, UniProt P21731, E129V/E240V); experiment: Total inositol phosphate (IP) accumulation, E129V/E240V double mutant, rescue with SQ29,548; assay type: cell-based; conditions: cells exposed to 1 µM for 18 hours, removed by washing, then 1 µM U46619 for 30 min
T3 construct: expressed in transfected cells; host or cells: HEK293
T3 sequence (P21731 1-343 E129V/E240V): T1 sequence (P21731 1-343 E129V) with E240V
Experimental: Receptor expression and functional activity were monitored 48 hours after transfection. […] Heterologous competition studies involved concentrations of the indicated unlabeled ligands extending from 0.1 nM to 30 µM. After 30 min incubation at 25 °C, the reaction was stopped by aspiration of the medium, cells were washed with ice-cold PBS containing 0.2% (w/v) BSA and lysed in 0.5 N NaOH. Radioactivity was measured by liquid scintillation counting. Binding data were analyzed as described in Data and Statistical Analysis. Quantification of the total labeled inositol phosphates (IP) accumulation was performed using a conventional gravity flow column chromatography, as described previously, [19]. […] The total IP fraction was then eluted with 2 M ammonium formate/formic acid buffer at pH 5 and radioactivity determined by liquid scintillation counting. […]
All average results are presented as mean±S.E. When indicated, ANOVA followed by post-hoc test for multiple comparisons was performed. Data from radioligand binding were evaluated by a nonlinear, least-squares curve-fitting procedure using GraphPad Prism version 4, implemented with the n-ligand m-binding site model, as described in the LIGAND computer program. Concentration-response curves were evaluated using Prism 4, which use the four parameters logistic model as described in the ALLFIT program. […]

[8] = 30 min stimulation, no Gαq overexpression, value ±%CV
[9] = Gαq overexpression (5x), 30 min

Row | Compound | EC50 ([1]; 30 min stimulation, value ±%CV) [nM] | Emax, total IP ([1]; 30 min stimulation, value ±%CV) [dpm/wel] | Activity ratio (EC50 WT over EC50 E129V), total IP [1] | Emax, total IP [2, 8] [dpm/well] | EC50 ([2]; 30 min stimulation, value ±%CV) [nM] | EC50 [3] [nM] | Emax, agonist-induced BRET [3] | Ki [4] [nM] | EC50 [5] [nM] | Activity ratio (EC50 WT over EC50 E129V), BRET [5] | Ki [6] [nM] | Affinity ratio (Ki WT over Ki E129V) [6] | EC50 [1, 9] [nM] | Emax, total IP [1, 9] [dpm/well] | Emax, total IP ([1]; no Gαq overexpression, 30 min) [dpm/well] | Pharmacodynamic behaviour in total IP assay [1] | EC50 [2, 9] [nM] | Emax, total IP [2, 9] [dpm/well] | Pharmacodynamic behaviour in total IP assay [2] | Functional rescue of double mutant receptor activity [7]
1 | CCCCC[C@H](O)/C=C/[C@H]1[C@H](O)CC(=O)[C@H]1C/C=C\CCCC(=O)O [8-isoPGE2, 8-iso Prostaglandin E2] | 95.9 ± 60 | 12201±5 | 12.0 | 5087±21 | 1160 ± 72 | 1980 ± 72 | −0.02±42 | 2916 ± 15 | 485 ± 46 | 4.1 | 547.6 ± 2 | 5.3 | – | – | – | – | – | – | – | –
2 | CCCCC[C@H](O)/C=C/[C@@H]1[C@H](C/C=C\CCCC(=O)O)[C@@H](O)C[C@H]1O [8-isoPGF2α, 8-iso Prostaglandin F2α] | 493 ± 53 | 15287±7 | 8.1 | 6744±42 | 4000 ± 68 | 3940 ± 48 | −0.05±9 | 12930 ± 19 | 404 ± 31 | 9.7 | 2908 ± 11 | 4.4 | – | – | – | – | – | – | – | –
3 | O=C(O)CCCC=CCC1C2CCC(O2)C1C=CC(O)COc1ccc(I)cc1 (stereo not drawn) [I-BOP, [1S-[1α,2α(Z),3β(1E,3S*),4α]]-7-[3-[3-hydroxy-4-(4-iodophenoxy)-1-butenyl]-7-oxabicyclo[2.2.1]hept-2-yl]-5-heptenoic acid] | 2.99 | 17156±8 | – | 13099±14 | 25.1 ± 65 | 13 ± 27 | −0.07±5 | 24.3 ± 18 | 3.96 | – | 3.9 | – | – | – | – | – | – | – | – | –
4 | CCCCC[C@H](O)/C=C/C1CC2CC(C1C/C=C\CCCC(=O)O)C2(C)C (stereo partly drawn) [PTA2, 9α,11α-(dimethyl)methylene-15S-hydroxy-11α-deoxy-11α-methylene-thromba-5Z,13E-dien-1-oic acid] | – | – | – | 5856 | – | – | – | 12100 | – | – | 4840 | – | 747 | 26642 | 19423 | much stronger agonist | 1450 | 19670 | very weak partial agonist | –
5 | O=C(O)CCC/C=C\C[C@@H]1[C@H](CNNC(=O)Nc2ccccc2)[C@H]2CC[C@@H]1O2 [SQ29,548, [1S-[1α,2α(Z),3α,4α]]-7-[3-[[2-[(phenylamino)carbonyl]-hydrazino]methyl]-7-oxabicyclo[2.2.1]hept-2-yl]-5-heptenoic acid] | – | – | – | – | – | – | – | – | – | – | – | – | – | – | – | pure antagonist | – | – | pure antagonist | able to rescue double mutant receptor functional activity, albeit not completely
